Assay results reported in US20200253877A1, “GEMCABENE, PHARMACEUTICALLY ACCEPTABLE SALTS THEREOF, COMPOSITIONS THEREOF AND METHODS OF USE THEREFOR” (NEUROBO PHARMACEUTICALS, INC., priority 2018, published 2020).

Tested on: hepatic mRNA expression in STAM™ mice
Assay: Murine STAM model of NASH-HCC: hepatic gene expression by quantitative RT-PCR
Assay type: in vivo, mouse
Conditions: n = 8, STAM mice, normalized to non-treated group
Experimental: A study was performed to evaluate the efficacy of gemcabene calcium salt hydrate Crystal Form 1 having a PSD90 of 52 μm as measured by laser light diffraction, in treating non-alcoholic steatosis hepatitis (NASH) in the murine STAM™ model of NASH-HCC.
Briefly, two-day old neonatal C57BL/6 male mice were administered low-dose streptozotocin (STZ), and were subsequently fed a HFC diet from 4 weeks of age. In this model, the mice typically develop liver steatosis and diabetes, reaching steatohepatitis within 3 weeks, followed by cirrhosis within 8 weeks, and carcinoma within 16 weeks. In the current study, mice were administered daily oral gemcabene calcium salt hydrate Crystal Form 1 starting at week 6 of age and were sacrificed at week 9. […] These STAM™ groups were orally administered from week 6 one of the following: water-vehicle, gemcabene calcium salt hydrate Crystal Form 1 at 30, 100 and 300 mg/kg daily, or telmisartan ([…]®) 10 mg/kg daily. […] All groups were sacrificed at week 9. Vehicle, gemcabene calcium salt hydrate Crystal Form 1, or telmisartan were administered by oral gavage once daily.
Various gene expression markers of liver metabolism were evaluated by Real-Time PCR (RT-PCR) in all mouse groups. Total RNA was extracted from liver samples using RNAiso (Takara Bio, Japan) according to the manufacturer's instructions. […] of RNA was reverse-transcribed using a reaction mixture containing 4.4 mM MgCl2 (F. Hoffmann-La Roche, Switzerland), 40 U RNase inhibitor (Toyobo, Japan), 0.5 mM dNTP (Promega, USA), 6.28 μM random hexamer (Promega), 5×first strand buffer (Promega), 10 mM dithiothreitol (Invitrogen, USA) and 200 U MMLV-RT (Invitrogen) in a final volume of 20 μL. The reaction was carried out for 1 hour at 37° C., followed by 5 minutes at 99° C. Real-time PCR was performed using real-time PCR DICE and SYBR premix Taq (Takara Bio). To calculate the relative mRNA expression level, the expression of each gene was normalized to that of reference gene 36B4 (gene symbol: RplpO). Information of PCR-primer sets is described in Tables 37A-37C. Statistical analyses were performed using the Bonferroni Multiple Comparison Test on GraphPad Prism 6 (GraphPad Software Inc., USA). P values <0.05 were considered statistically significant. Results are expressed as mean±SD.
In order to calculate the relative mRNA expression level, the expression of each gene was normalized to that of the reference gene 36B4 (gene symbol: RplpO). The gene expression levels were measured by quantitative RT-PCR. Results were normalized with values for the vehicle-treated normal group. […] Gemcabene calcium salt hydrate Crystal Form 1 (PSD90=52 μm) modulated the mRNA expression of many hepatic genes that play a significant role in the liver homeostasis and injury.

SMILES: CC(C)(CCCCOCCCCC(C)(C)C(=O)O)C(=O)O [gemcabene, 6-(5-carboxy-5-methyl-hexyloxy)-2,2-dimethyl-hexanoic acid]
- ACC1 gene expression (mean ± SD) (30 mg/kg): 1.0 ± 0.1
- ACC2 gene expression (mean ± SD) (30 mg/kg): 0.6 ± 0.2
- ADH-4 gene expression (mean ± SD) (30 mg/kg): 0.8 ± 0.2
- ANGPTL3 gene expression (mean ± SD) (30 mg/kg): 0.7 ± 0.2
- ANGPTL4 gene expression (mean ± SD) (30 mg/kg): 2.9 ± 0.5
- ANGPTL8 gene expression (mean ± SD) (30 mg/kg): 0.3 ± 0.1
- ApoC-III gene expression (mean ± SD) (30 mg/kg): 0.7 ± 0.1
- CCR2 gene expression (mean ± SD) (30 mg/kg): 3.3 ± 1.0
- CCR5 gene expression (mean ± SD) (30 mg/kg): 2.4 ± 0.9
- CRP gene expression (mean ± SD) (30 mg/kg): 0.9 ± 0.2
- CXCL1/KC gene expression (mean ± SD) (30 mg/kg): 0.8 ± 0.4
- Fetuin-A gene expression (mean ± SD) (30 mg/kg): 1.1 ± 0.4
- IL-1β gene expression (mean ± SD) (30 mg/kg): 1.0 ± 0.5
- IL-6 gene expression (mean ± SD) (30 mg/kg): 4.6 ± 4.7
- LDL receptor gene expression (mean ± SD) (30 mg/kg): 0.9 ± 0.2
- LPL gene expression (mean ± SD) (30 mg/kg): 3.8 ± 0.9
- MCP-1 gene expression (mean ± SD) (30 mg/kg): 3.2 ± 1.5
- MIP-1β gene expression (mean ± SD) (30 mg/kg): 5.4 ± 3.2
- MMP-2 gene expression (mean ± SD) (30 mg/kg): 1.7 ± 0.5
- NF-κB gene expression (mean ± SD) (30 mg/kg): 1.3 ± 0.2
- PNPLA3 gene expression (mean ± SD) (30 mg/kg): 0.3 ± 0.1
- SCD1 gene expression (mean ± SD) (30 mg/kg): 0.2 ± 0.1
- SREBP-1 gene expression (mean ± SD) (30 mg/kg): 0.9 ± 0.2
- Sulf-2 gene expression (mean ± SD) (30 mg/kg): 5.1 ± 1.1
- TIMP-1 gene expression (mean ± SD) (30 mg/kg): 9.9 ± 4.9
- TNF-α gene expression (mean ± SD) (30 mg/kg): 4.0 ± 1.8
- α-SMA gene expression (mean ± SD) (30 mg/kg): 2.6 ± 0.6
- ACC1 gene expression (mean ± SD) (100 mg/kg): 0.7 ± 0.1
- ACC2 gene expression (mean ± SD) (100 mg/kg): 0.4 ± 0.1
- ADH-4 gene expression (mean ± SD) (100 mg/kg): 0.6 ± 0.1
- ANGPTL3 gene expression (mean ± SD) (100 mg/kg): 0.4 ± 0.1
- ANGPTL4 gene expression (mean ± SD) (100 mg/kg): 1.6 ± 0.3
- ANGPTL8 gene expression (mean ± SD) (100 mg/kg): 0.4 ± 0.1
- ApoC-III gene expression (mean ± SD) (100 mg/kg): 0.5 ± 0.0
- CCR2 gene expression (mean ± SD) (100 mg/kg): 1.6 ± 0.4
- CCR5 gene expression (mean ± SD) (100 mg/kg): 1.4 ± 0.3
- CRP gene expression (mean ± SD) (100 mg/kg): 0.6 ± 0.1
- CXCL1/KC gene expression (mean ± SD) (100 mg/kg): 0.2 ± 0.1
- Fetuin-A gene expression (mean ± SD) (100 mg/kg): 0.7 ± 0.1
- IL-1β gene expression (mean ± SD) (100 mg/kg): 1.1 ± 0.5
- IL-6 gene expression (mean ± SD) (100 mg/kg): 0.9 ± 0.3
- LDL receptor gene expression (mean ± SD) (100 mg/kg): 0.9 ± 0.2
- LPL gene expression (mean ± SD) (100 mg/kg): 7.4 ± 0.9
- MCP-1 gene expression (mean ± SD) (100 mg/kg): 1.7 ± 0.7
- MIP-1β gene expression (mean ± SD) (100 mg/kg): 2.3 ± 0.9
- MMP-2 gene expression (mean ± SD) (100 mg/kg): 0.5 ± 0.2
- NF-κB gene expression (mean ± SD) (100 mg/kg): 0.9 ± 0.1
- PNPLA3 gene expression (mean ± SD) (100 mg/kg): 0.2 ± 0.1
- SCD1 gene expression (mean ± SD) (100 mg/kg): 0.3 ± 0.1
- SREBP-1 gene expression (mean ± SD) (100 mg/kg): 0.9 ± 0.2
- Sulf-2 gene expression (mean ± SD) (100 mg/kg): 3.8 ± 0.7
- TIMP-1 gene expression (mean ± SD) (100 mg/kg): 3.8 ± 1.6
- TNF-α gene expression (mean ± SD) (100 mg/kg): 2.0 ± 0.8
- α-SMA gene expression (mean ± SD) (100 mg/kg): 2.4 ± 0.9
- ACC1 gene expression (mean ± SD) (300 mg/kg): 0.8 ± 0.1
- ACC2 gene expression (mean ± SD) (300 mg/kg): 0.5 ± 0.1
- ADH-4 gene expression (mean ± SD) (300 mg/kg): 0.5 ± 0.1
- ANGPTL3 gene expression (mean ± SD) (300 mg/kg): 0.4 ± 0.1
- ANGPTL4 gene expression (mean ± SD) (300 mg/kg): 1.7 ± 0.3
- ANGPTL8 gene expression (mean ± SD) (300 mg/kg): 0.2 ± 0.1
- ApoC-III gene expression (mean ± SD) (300 mg/kg): 0.4 ± 0.1
- CCR2 gene expression (mean ± SD) (300 mg/kg): 1.7 ± 0.7
- CCR5 gene expression (mean ± SD) (300 mg/kg): 1.3 ± 0.3
- CRP gene expression (mean ± SD) (300 mg/kg): 0.5 ± 0.1
- CXCL1/KC gene expression (mean ± SD) (300 mg/kg): 0.2 ± 0.1
- Fetuin-A gene expression (mean ± SD) (300 mg/kg): 0.7 ± 0.1
- IL-1β gene expression (mean ± SD) (300 mg/kg): 0.7 ± 0.3
- IL-6 gene expression (mean ± SD) (300 mg/kg): 0.6 ± 0.2
- LDL receptor gene expression (mean ± SD) (300 mg/kg): 0.8 ± 0.1
- LPL gene expression (mean ± SD) (300 mg/kg): 6.9 ± 1.1
- MCP-1 gene expression (mean ± SD) (300 mg/kg): 1.6 ± 0.7
- MIP-1β gene expression (mean ± SD) (300 mg/kg): 2.8 ± 1.4
- MMP-2 gene expression (mean ± SD) (300 mg/kg): 0.9 ± 0.2
- NF-κB gene expression (mean ± SD) (300 mg/kg): 0.8 ± 0.1
- PNPLA3 gene expression (mean ± SD) (300 mg/kg): 0.2 ± 0.2
- SCD1 gene expression (mean ± SD) (300 mg/kg): 0.4 ± 0.2
- SREBP-1 gene expression (mean ± SD) (300 mg/kg): 0.7 ± 0.1
- Sulf-2 gene expression (mean ± SD) (300 mg/kg): 3.3 ± 0.9
- TIMP-1 gene expression (mean ± SD) (300 mg/kg): 4.4 ± 2.1
- TNF-α gene expression (mean ± SD) (300 mg/kg): 1.9 ± 0.7
- α-SMA gene expression (mean ± SD) (300 mg/kg): 2.5 ± 0.7
